Columns and labels:
locomotion = assay: inhibition of locomotion in mice; assay type: in vivo, mice (male, OF-1); settings: Mus musculus, po, minimum dose with significant inhibition, p.o., 1 hour after administration, read-out: Locomotor inhibition EDmin
Description: In particular, the compounds of formula I are useful as neuroleptic agents in the treatment of e.g. psychotic disorders such as schizophrenia, as indicated in standard tests, e.g. by an inhibition of locomotion in mice. In this test groups of 3 male mice (18-24 g, OF-1, Sandoz Basle) received 3.2, 10, 32, 100 and […]. of the test drug. 1 hour after drug administration the mice were observed individually and their locomotion compared with that of control. The locomotion of the animals was observed and the EDmin (the minimum dose at which significant inhibition was observed) determined.

[1] = biological target: T1, 3H-spiperone binding sites (Bos taurus, UniProt P20288); assay: 3H-spiperone binding in calf brain striatal tissue; settings: for IC50: calf striatal membranes, 0.1 nM 3H-spiperone, 5×10^-7 M cinanserin, pH 7.7, 40 min room temperature, read-out: Receptor binding IC50 3H-spiperone; for effect in the 3H-spiperone binding test compared with Clozapine: in words, versus Clozapine
T1 construct: fresh calf brain striatal tissue was homogenized; from tissue; host or cells: calf brain striatum, membranes
Description: The compounds of the invention bind further on ^3 H-spiperone binding sites in the brain [modified method of J. Leysen et al., Biochem. Pharmac. […] The test was performed as follows: fresh calf brain striatal tissue was homogenized in the 25 fold volume of tris buffer (pH 7.4, 50 mM, 120 mM sodium chloride) and centrifuged. The pellets were suspended in the 22 fold volume of tris buffer, incubated for 15 minutes at 37° C. and centrifuged. The pellets were suspended in the 300 fold volume of tris buffer. […] After incubation for 40 minutes at room temperature, the assay mixtures were rapidly filtered through Whatman GF/B filter, the filters washed twice with 5 ml of ice cold tris buffer and scintillation-counted.

[2] = tested on: sleep/wake cycle (sleep phase II, paradoxical sleep); assay: sleep/wake cycle in rats; assay type: in vivo
Description: Furthermore, the compounds on administration of 2-20 mg/kg p.o. to rats increase the sleep phase II and decrease the paradoxical sleep in the sleep/wake cycle carried out in accordance with the principles of H. Kleinlogel et al., European J. Pharmacol. 33, 159-163 (1975). […]

α1-receptors = assay: 3H-Prazosin binding assay for α1-receptors in calf brain cortex tissue; settings: calf brain cortex membranes, 0.3 nM 3H-Prazosin, pH 7.7, 40 min room temperature; read-out: IC50 (inhibition of specific 3H-Prazosin binding)
Description: The compounds of the invention are furthermore useful as anti-hypertensive agents, as indicated in standard tests, for example in the ^3 H-Prazosin binding assay for α1 -receptors [modified method of Greengrass P., et al., Eur. J. Pharmac. 55, 323-326 (1979)]. The test was performed as follows:
Fresh calf brain cortex tissue is homogenized in a 20 fold volume of Tris-HCl buffer (50 mM, pH 7.7), using a Polytron PT 20, and centrifuged at 30,000×g for 25 min. The pellets are resuspended in a 13 fold volume of the same buffer, incubated for 15 min at 37° C., and recentrifuged at 50,000×g for 11 min. The pellets of this centrifugation are frozen at -20° C. and resuspended in a 60 fold volume of the same buffer as above before use for the binding experiment. The composition of the assay mixtures (total volume=2 ml) is as follows: 50 mM Tris-HCl pH 7.7, membranes corresponding to 30 mg of original tissue weight, and 0.3 nM ^3 H-Prazosin. The assays for the definition of nonspecific binding additionally contain phentolamine at a concentration of 10 μM. To assess the potency of drugs in inhibiting specific ^3 H-Prazosin binding (difference between total and nonspecific binding), the test compounds are added to give 5 to 9 different concentrations between 1 nM and 10 μM, each in duplicate. […] The radioactivity of the filters is estimated by scintillation counting.

[3] = tested on: blood pressure or heart rate; assay: blood pressure / heart rate in anaesthetized normotonic rats; assay type: in vivo, female normotonic rats (Sprague-Dawley); settings: Rattus norvegicus, iv, cumulative i.v. doses, by interpolation, read-out: ED75 (dose required to reduce the blood pressure or the heart rate to 75% of pretreatment values)
Description: In another test female normotonic rats (200-350 g, Sprague-Dawley, Suddeutsche Tierfarm, Tuttlingen, FRG) were anaesthetized with urethane (1.5-1.75 g/kg i.p. in 2 portions) and a tracheal cannula was inserted. Blood pressure and heart rate were recorded from the carotid artery by conventional methods. Test drugs were administered by the jugular or the femoral vein. Body temperature was maintained at 34° C. by means of a temperature regulator (Alfos MK-4) triggered by a thermistor on the animal. After adaptation, increasing doses of the test drug were injected i.v. to give the following cumulative doses: 3, 13, 43, 143, 343 and 1443 μg/kg. ED 75% is the dose required to reduce the blood pressure or the heart rate to 75% of pretreatment values. It was obtained through interpolation. The ED75 of the Example 3a compound is 524 μg/kg i.v.

T1 sequence (P20288 whole entry): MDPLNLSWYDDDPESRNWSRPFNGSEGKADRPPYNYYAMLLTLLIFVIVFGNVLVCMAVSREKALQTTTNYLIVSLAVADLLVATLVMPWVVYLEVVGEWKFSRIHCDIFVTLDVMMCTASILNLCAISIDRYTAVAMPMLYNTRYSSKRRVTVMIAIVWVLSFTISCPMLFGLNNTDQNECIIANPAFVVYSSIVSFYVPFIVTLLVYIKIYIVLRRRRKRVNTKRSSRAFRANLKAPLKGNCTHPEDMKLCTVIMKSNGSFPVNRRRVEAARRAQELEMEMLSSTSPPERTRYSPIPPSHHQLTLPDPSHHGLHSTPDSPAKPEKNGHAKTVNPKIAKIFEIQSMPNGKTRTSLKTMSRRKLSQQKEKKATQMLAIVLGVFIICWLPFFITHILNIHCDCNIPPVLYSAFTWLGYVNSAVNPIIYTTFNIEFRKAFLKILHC

Row | Structure (SMILES) | minimal effective dose (locomotion) [mg/kg] | IC50 [1] [nM] | effect in the 3H-spiperone binding test compared with Clozapine [1] | Sleep phase II ([2]; 3.2 mg/kg po) | paradoxical sleep ([2]; 3.2 mg/kg po) | IC50 (α1-receptors) [nM] | ED75 [3] [mg/kg] | Sleep phase II ([2]; 10 mg/kg po) | paradoxical sleep ([2]; 10 mg/kg po)
1 | O=C(CCCN1CCN(c2ncc3ccccc3n2)CC1)c1ccc(F)cc1 [Example 1, 4-[4-(Quinazolin-2-yl)-1-piperazinyl]-1-(4-fluorophenyl)-1-butanone] | 3.3 | 344 | stronger effects in the ^3 H-spiperone binding test than Clozapine | 171 % of control | 92 % of control |  |  |  | 
2 | Cc1nc(N2CCN(CCCC(=O)c3ccc(F)cc3)CC2)nc2ccccc12 [Example 3a] |  |  |  |  |  | 3.5 | 0.524 |  | 
3 | O=C(CCCN1CCN(c2nc(-c3ccccc3)c3ccccc3n2)CC1)c1ccc(F)cc1 [Example 3e] | < 3.2 | 342 | stronger effects in the ^3 H-spiperone binding test than Clozapine |  |  |  |  | 607 % of control | 9 % of control
4 | CN1CCN(C2=Nc3cc(Cl)ccc3Nc3ccccc32)CC1 [clozapine, reference compound] | 3.2 |  |  |  |  |  |  | 483 % of control | 26 % of control

Source: patent US4588725A, “2-piperazinyl-quinazoline derivatives and pharmaceutical compositions containing them” (Sandoz Ltd., priority 1982, dated 1986)
